Experimental data published in patent US10550101B2, “Crystalline forms of mesylate salt of pyridinyl amino pyrimidine derivative, preparation methods therefor, and applications thereof” (SHANGHAI ALLIST PHARMACEUTICAL AND MEDICAL TECHNOLOGY …, priority 2016, dated 2020).
Values after ≈ are worked out from the molar mass of the structure shown. Where a name gives a salt, the structure may show the parent alone. Read-outs that look alike come from different tables or passages of the source.

Tests used:
[1] = Drug absorption experiment in SD rats, intravenous administration; assay type: in vivo, SD rats (Sprague Dawley rats); settings: for half-life / AUC(0-t) / Cmax: plasma
Experimental: The determination method for the absolute bioavailability of the intragastric administration of the crystal forms of the mesylate salt of the compound of formula (I) is as follows: • For intravenous administration: Healthy SD rats are randomly grouped. The tested substance is administered in a certain dosage D through the intravenous administration. The blood samples are collected through the retrobulbar venous plexus before the administration and 5 min, 15 min, 0.5 h, 1.0 h, 2.0 h, 4.0 h, 8.0 h, 12 h and 24 h after the administration, and separated to give plasmas. The concentration of the drug in plasma is determined with the liquid chromatography-tandem mass spectrometry method to give a drug concentration-time curve. • For intragastric administration: Healthy SD rats are randomly grouped. The tested substance is administered in a certain dosage D through the intragastric administration. The intravenous blood samples are collected through the rat's retrobulbar venous plexus before the administration and 0.5, 1.0, 2.0, 4.0, 6.0, 8.0, 10, 12 and 24 h after the administration, and separated to give plasmas. The concentration of the drug in plasma is determined with the liquid chromatography-tandem mass spectrometry method to give a drug concentration-time curve.
For intravenous administration: 20 healthy (half male and half female) SD rats with 200-280 g body weight, provided by Shanghai Sippr-BK laboratory animal Co. Ltd., were assigned randomly to 5 groups. […] 0.2 ml of the intravenous blood samples were collected through the rat's retrobulbar venous plexus before the administration and 5 min, 15 min, 0.5 h, 1.0 h, 2.0 h, 4.0 h, 8.0 h, 12 h and 24 h after the administration, and separated to give plasmas.
The concentration of the drug in plasma was determined with the liquid chromatography-tandem mass spectrometry method to give a drug concentration-time curve.
T1/2: elimination half-life; Cmax: maximum drug concentration in plasma; AUC0-t: area under drug concentration-time curve.

[2] = Drug absorption experiment in SD rats, intragastric administration (incl. absolute bioavailability); assay type: in vivo, SD rats (Sprague Dawley rats); settings: for bioavailability / F (absolute bioavailability): from AUC0-t after dosage calibration; for bioavailability: read-out: F (absolute bioavailability); for F (absolute bioavailability): intragastric 10 mg/kg vs intravenous 2.5 mg/kg
Experimental: The determination method for the absolute bioavailability of the intragastric administration of the crystal forms of the mesylate salt of the compound of formula (I) is as follows: • For intravenous administration: Healthy SD rats are randomly grouped. The tested substance is administered in a certain dosage D through the intravenous administration. The blood samples are collected through the retrobulbar venous plexus before the administration and 5 min, 15 min, 0.5 h, 1.0 h, 2.0 h, 4.0 h, 8.0 h, 12 h and 24 h after the administration, and separated to give plasmas. […] The tested substance is administered in a certain dosage D through the intragastric administration.
After dosage calibration, the absolute bioavailability F is calculated by the area under the drug concentration-time curve (AUC0-t). The calculation equation is as follows: F=(AUCintragastric×Dintravenous)/(AUCintravenous×Dintragastric)×100%.
For intragastric administration: 20 healthy (half male and half female) SD rats with 200-280 g body weight, provided by Shanghai Sippr-BK laboratory animal Co. Ltd., were assigned randomly to 5 groups.
After dosage calibration, the absolute bioavailability F was obtained by calculation of AUC0-t. The calculation equation was as follows: F=(AUCintragastric×Dintravenous)/(AUCintravenous×Dintragastric)×100%. The obtained absolute bioavailability F data are shown in the above table 2.

[3] = Solubility test under different pH buffering solutions; assay type: physicochemical; settings: for Solubility: 24 h; for solubilities compared with the compound of formula (I) of Example 1: solvent pH values 1.0, 4.5 and 6.8, conclusion in words
Experimental: The solubilities of the crystal forms of the mesylate salt of the compound of formula (I) may be measured according to the following method: • Each substance is weighed in an appropriate amount and placed in a brown flask. Different solvents are added. The mixtures are ultrasonically treated for 20 seconds. After the mixtures are uniformly dispersed, the mixtures are shaked at 25° C., 200 rpm for 24 h, then removed, and separated by centrifugation at 12000 rpm for 10 mins. The supernatants are removed by suction and diluted to a certain fold with the corresponding solvent. Then, the concentrations of the resulting solutions are determined by HPLC and their pH values are measured.
The compound of formula (I) of Example 1, Form I of the mesylate salt of the compound of formula (I), and Form II of the mesylate salt of the compound of formula (I) were investigated for the solubilities under different pH buffering solutions.
Test method: Each substance was weighed in an appropriate amount and placed in a brown flask. Different solvents were added. The mixtures were ultrasonically treated for 20 seconds. After the mixtures were uniformly dispersed, the mixtures were shaked at 25° C., 200 rpm for 24 h, then removed, and separated by centrifugation at 12000 rpm for 10 mins. The supernatants were removed by suction and diluted to a certain folds with the corresponding solvent. Then, the concentrations of the resulting solutions were determined by HPLC and their pH values were measured.

[4] = intragastric, dosage 10 mg/kg, plasma
[5] = Acetate buffering solution at pH = 4.5, 25° C.
[6] = Phosphate buffering solution at pH = 6.8, 25° C.

For `C=CC(=O)Nc1cc(Nc2nccc(-c3cn(C)c4ccccc34)n2)c(OC(C)C)nc1N(C)CCN(C)C` [Comparative Example 1, reference compound], the half-life ([1]; both sexes, Sprague-Dawley, rat, iv, 3 mg/kg, dosage 3.0 mg/kg, elimination half-life) was 2.72 h, the AUC(0-t) ([1]; both sexes, Sprague-Dawley, rat, iv, 3 mg/kg, dosage 3.0 mg/kg, read-out: AUC0-t) was 438 ng·h/mL and the Cmax ([1]; both sexes, Sprague-Dawley, rat, iv, 3 mg/kg, dosage 3.0 mg/kg, read-out: Cmax) was 328 ng/mL. For the same compound, the bioavailability ([2]; both sexes, Sprague-Dawley, rat, plasma, po, 6 mg/kg, intragastric 6 mg/kg vs intravenous 3.0 mg/kg) was 8.9%.

`C=CC(=O)Nc1cc(Nc2nccc(-c3cn(C)c4ccccc34)n2)c(OCC(F)(F)F)nc1N(C)CCN(C)C` [Form II, Form II of the Mesylate Salt of N-{2-{[2-(dimethylamino)ethyl](methyl)amino}-6-(2,2,2-trifluoroethoxy)-5-{[4-(1-methyl-1H-indol-3-yl)pyrimidin-2-yl]amino}pyridin-3-yl}acrylamide] gave a T1/2 ([1]; dosage 2.5 mg/kg, elimination half-life) of 4.83 h, an AUC(0-t) ([1]; dosage 2.5 mg/kg) of 362.0 ng·h/mL and a Cmax ([1]; dosage 2.5 mg/kg) of 125.4 ng/mL. The “F (absolute bioavailability)” value [2] was 39.1%, the AUC(0-t) [2, 4] was 566.3 ng·h/mL and the Cmax [2, 4] was 36.7 ng/mL. The Solubility ([3]; 0.1N HCl, 25° C.) was over 100 mg/mL, the Solubility [3, 5] was 61.14 mg/mL and the Solubility [3, 6] was 0.02 mg/mL. The “solubilities compared with the compound of formula (I) of Example 1” value [3] was “remarkably better”.

With `C=CC(=O)Nc1cc(Nc2nccc(-c3cn(C)c4ccccc34)n2)c(OCC(F)(F)F)nc1N(C)CCN(C)C` [Example 1, N-{2-{[2-(dimethylamino)ethyl](methyl)amino}-6-(2,2,2-trifluoroethoxy)-5-{[4-(1-methyl-1H-indol-3-yl)pyrimidin-2-yl]amino}pyridin-3-yl}acrylamide] the Solubility ([3]; 0.1N HCl, 25° C.) was over 30 mg/mL, the Solubility [3, 5] was 0.62 mg/mL (≈ 1090 µM) and the Solubility [3, 6] was 0.0003 mg/mL (≈ 0.528 µM).

With `C=CC(=O)Nc1cc(Nc2ncc(Cl)c(-c3cn(C)c4ccccc34)n2)c(OC(C)C)nc1N(C)CCN(C)C` [Comparative Example 2, reference compound] the half-life ([1]; both sexes, Sprague-Dawley, rat, iv, 4 mg/kg, dosage 4.0 mg/kg, elimination half-life) was 1.71 h, the AUC(0-t) ([1]; both sexes, Sprague-Dawley, rat, iv, 4 mg/kg, dosage 4.0 mg/kg, read-out: AUC0-t) was 811 ng·h/mL and the Cmax ([1]; both sexes, Sprague-Dawley, rat, iv, 4 mg/kg, dosage 4.0 mg/kg, read-out: Cmax) was 630 ng/mL. The bioavailability ([2]; both sexes, Sprague-Dawley, rat, plasma, po, 10 mg/kg, intragastric 10 mg/kg vs intravenous 4.0 mg/kg) was 8.5%.

For `C=CC(=O)Nc1cc(Nc2nccc(-c3cn(C)c4ccccc34)n2)c(OCC(F)(F)F)nc1N(C)CCN(C)C` [Form I, Form I of the Mesylate Salt of N-{2-{[2-(dimethylamino)ethyl](methyl)amino}-6-(2,2,2-trifluoroethoxy)-5-{[4-(1-methyl-1H-indol-3-yl)pyrimidin-2-yl]amino}pyridin-3-yl}acrylamide], the half-life ([1]; both sexes, Sprague-Dawley, rat, iv, 2.5 mg/kg, dosage 2.5 mg/kg, elimination half-life) was 4.73 h, the AUC(0-t) ([1]; both sexes, Sprague-Dawley, rat, iv, 2.5 mg/kg, dosage 2.5 mg/kg, read-out: AUC0-t) was 308 ng·h/mL and the Cmax ([1]; both sexes, Sprague-Dawley, rat, iv, 2.5 mg/kg, dosage 2.5 mg/kg, read-out: Cmax) was 105 ng/mL. It also gave a half-life ([2]; both sexes, Sprague-Dawley, rat, plasma, po, 10 mg/kg, intragastric, dosage 10 mg/kg, elimination half-life) of 7.98 h, an AUC(0-t) ([2]; both sexes, Sprague-Dawley, rat, plasma, po, 10 mg/kg, intragastric, dosage 10 mg/kg, plasma, read-out: AUC0-t) of 613 ng·h/mL and a Cmax ([2]; both sexes, Sprague-Dawley, rat, plasma, po, 10 mg/kg, intragastric, dosage 10 mg/kg, plasma, read-out: Cmax) of 45.3 ng/mL. For the same compound, the “F (absolute bioavailability)” value [2] was 49.8%, the Solubility ([3]; 0.1N HCl, 25° C.) was over 100 mg/mL and the Solubility [3, 5] was 29.05 mg/mL. The Solubility [3, 6] was 0.02 mg/mL and the “solubilities compared with the compound of formula (I) of Example 1” value [3] was “remarkably better”.
